Measured values as given in patent US20230111925A1, “FIBROTIC DISEASE MECHANISM AND THERAPEUTIC DRUG THEREFOR” (GUANGZHOU WOMEN AND CHILDREN'S MEDICAL CENTER, priority 2020, published 2023).
Structures can show the parent of a compound that is named as a salt.

Columns and labels:
[1] = test system: normal intestinal fibroblast CCD-18Co; test: Proliferation and apoptosis of normal intestinal fibroblast CCD-18Co; type: cell-based
[2] = test system: lung epithelial cells A549 infected with SEV; test: IFN-β induction in SeV-infected lung epithelial cells A549; type: cell-based; settings: vs DMSO
Source text: Total RNA was extracted from cells, and the mRNA level of IFN-β was detected by fluorescence quantitative PCR. The level of IFN-β in the supernatants was detected by ELISA. […] The cells were collected and total RNA was collected from the cells, and the mRNA level of IFN-β was detected by fluorescence quantitative PCR.

[3] = test system: RNA virus VSV; type: in vivo, mice; settings: Dipyridamole 30 mg/kg i.p. from day -3; VSV 10^8 PFU/g tail vein day 0 and day 4
[4] = test system: DSS-induced mouse colitis; test: DSS-induced mouse colitis
[5] = test system: CCD-18Co cells stimulated by TGF-β and TNF-α; test: Intestinal interstitial fibrosis model in CCD-18Co cell line (Western blot); type: cell-based; settings: 0.5 μM ITI-214 added one hour in advance; TGF-β 10 ng/ml and TNF-α 40 ng/ml, 48 hours
[6] = A549, SEV MOI=1, 0, 16 and 24 hours
[7] = Icariin 50 mg/kg i.p. twice a day days 4-7, vs model group
[8] = 10 mg/kg i.p. twice a day days 4-15, 2% DSS days 0-10
[9] = 10 mg/kg i.p. twice a day days 4-15, 2% DSS days 0-10, vs model group
[10] = PF-04447943 3 mg/kg i.p. twice a day days 4-12, vs model group
[11] = 5 mg/kg i.p. twice a day days 4-15, 2% DSS days 0-10, vs model group
[12] = ITI214 3 mg/kg i.p. twice a day days 4-8, 2% DSS days 0-7
[13] = PF-05085727 3 mg/kg i.p. twice a day days 4-9
[14] = PF-05085727 3 mg/kg i.p. twice a day days 4-9, vs model group
[15] = Mardepodect hydrochloride 1 mg/kg i.p. twice a day days 4-7, vs model group
[16] = Roflumilast 3 mg/kg i.p. twice a day days 4-9, vs model group

OCCN(CCO)c1nc(N2CCCCC2)c2nc(N(CCO)CCO)nc(N3CCCCC3)c2n1 [Dipyridamole]
apoptosis of fibroblasts (flow early/late apoptosis analysis) ([1]; 20 μM DIP, 48 hours): promoted | proliferation of fibroblasts (crystal violet staining) ([1]; 20 μM DIP, 48 hours): inhibited | mRNA level of the type I interferon IFN-β (fluorescence quantitative PCR) ([2]; A549, PDE inhibitor 5 μM, SEV MOI=1, 24 hours): significantly up-regulate | mRNA level of IFN-β (fluorescence quantitative PCR) [2, 6]: significantly promoted | protein level of IFN-β in the supernatants (ELISA) [2, 6]: significantly promoted | infiltration of pulmonary inflammation in lung and alveolar injury (H&E staining of mouse lung) [3]: significantly reduced

Icariin
weight loss of colitis ([4]; Icariin 50 mg/kg i.p. twice a day days 4-7, 2% DSS days 0-7, from day 6): significantly inhibited | colonic tissue structure, epithelial structure (H&E) [4, 7]: significantly restore | fibrosis (colon H&E) [4, 7]: reduced | infiltration of inflammatory cells (colon H&E) [4, 7]: decreased

Cc1[nH]c(=O)c(C#N)cc1-c1ccncc1 [Milirinone]
weight changes [4, 8]: did not decrease significantly | colonic tissue structure, epithelial structure (H&E) [4, 9]: significantly restore | fibrosis (colon H&E) [4, 9]: reduced | infiltration of inflammatory cells (colon H&E) [4, 9]: decreased

C[C@@H]1CN(Cc2ncccn2)C[C@H]1c1nc2c(cnn2C2CCOCC2)c(=O)[nH]1 [PF-04447943]
colon length ([4]; PF-04447943 3 mg/kg i.p. twice a day days 4-12): significantly improve | weight loss ([4]; PF-04447943 3 mg/kg i.p. twice a day days 4-12, 2% DSS days 0-10, from day 6): significantly inhibited | survival rate ([4]; PF-04447943 3 mg/kg i.p. twice a day days 4-12, 2% DSS days 0-10, model group 40%): 100% | disease activity index score, experimental colitis ([4]; PF-04447943 3 mg/kg i.p. twice a day days 4-12, from day 6): significantly inhibited | colonic tissue structure, epithelial structure (H&E) [4, 10]: significantly restore | fibrosis (colon H&E) [4, 10]: reduced | infiltration of inflammatory cells (colon H&E) [4, 10]: decreased

O=C1CCc2cc(OCCCCc3nnnn3C3CCCCC3)ccc2N1 [Cilostazol]
weight changes [4, 8]: did not decrease significantly | colonic tissue structure, epithelial structure (H&E) [4, 9]: significantly restore | fibrosis (colon H&E) [4, 9]: reduced | infiltration of inflammatory cells (colon H&E) [4, 9]: decreased

COc1ccc(C(=O)N2CCN(c3ccc4c(c3)CCC(=O)N4)CC2)cc1OC [Vesnarinone]
weight changes ([4]; 5 mg/kg i.p. twice a day days 4-15, 2% DSS days 0-10): did not decrease significantly | colonic tissue structure, epithelial structure (H&E) [4, 11]: significantly restore | fibrosis (colon H&E) [4, 11]: reduced | infiltration of inflammatory cells (colon H&E) [4, 11]: decreased

CN1C(=O)c2c(nn(Cc3ccc(-c4cccc(F)n4)cc3)c2Nc2ccccc2)N2C1=N[C@@H]1CCC[C@@H]12.O=P(O)(O)O [ITI214]
apoptosis of fibroblasts (flow early/late apoptosis analysis) ([1]; 0.5 μM ITI-214, 48 hours): promoted | proliferation of fibroblasts ([1]; 0.5 μM ITI-214, 48 hours): effectively inhibit | protein expression levels of α-SMA, COL1A2 and FAP in cells (Western blot) [5]: inhibited | colon length [4, 12]: significantly improved | disease activity index score (DAI score), severity of colitis [4, 12]: significantly reduced | fibrosis (colon H&E) [4, 12]: inhibits | infiltration of inflammatory cells (colon H&E) [4, 12]: reduces | structures of colon epithelium and lamina propria (H&E) [4, 12]: significantly restored | weight changes of mice ([4]; ITI214 3 mg/kg i.p. twice a day days 4-8, 2% DSS days 0-7, day 7): significantly increased | survival rate ([4]; ITI214 3 mg/kg i.p. twice a day days 4-8, 2% DSS days 0-7, model group 50%): 80%

Cn1ncc(-c2nn(C)c3ncnc(N4CCC4)c23)c1-c1ccc(C(F)(F)F)cc1 [PF-05085727]
colon length [4, 13]: significantly improved | disease activity index score, activity degree of the disease [4, 13]: did not aggravate | weight changes ([4]; PF-05085727 3 mg/kg i.p. twice a day days 4-9, 2% DSS days 0-7): did not decrease significantly | survival rate ([4]; PF-05085727 3 mg/kg i.p. twice a day days 4-9, 2% DSS days 0-7, model group 40%): 100% | colonic tissue structure, epithelial structure (H&E) [4, 14]: significantly restored | fibrosis (colon H&E) [4, 14]: reduced | inflammatory cells (colon H&E) [4, 14]: reduced

Cn1cc(-c2ccncc2)c(-c2ccc(OCc3ccc4ccccc4n3)cc2)n1 [Mardepodect hydrochloride]
weight changes ([4]; Mardepodect hydrochloride 1 mg/kg i.p. twice a day days 4-7, 2% DSS days 0-7): did not decrease the weight significantly | colonic tissue structure, epithelial structure (H&E) [4, 15]: significantly restore | fibrosis (colon H&E) [4, 15]: reduced | infiltration of inflammatory cells (colon H&E) [4, 15]: decreased

O=C(Nc1c(Cl)cncc1Cl)c1ccc(OC(F)F)c(OCC2CC2)c1 [Roflumilast]
weight changes ([4]; Roflumilast 3 mg/kg i.p. twice a day days 4-9, 2% DSS days 0-7): did not decrease significantly | colonic tissue structure, epithelial structure (H&E) [4, 16]: significantly restore | fibrosis (colon H&E) [4, 16]: reduced | infiltration of inflammatory cells (colon H&E) [4, 16]: decreased
